Results on one compound are retold here after patent publication US7802989B2, “Ozone tray” (CurOzone Ireland Ltd., priority 2000, dated 2010).

The experiment concerns white spots. Put plainly: Ozone applied through tray over teeth and gums with in situ orthodontic bands; teeth examined for white spots. The class given is in vivo. Conditions: ozone introduced for up to 2 minutes. The source says:
The method includes disposing the resilient elastomeric tray over the teeth 124 and orthodontic bands 160 applied thereto.
Ozone introduced into the cavity 136 via the port 150 is provided for a period of time to treat the white spots and sterilize the orthodontic bands 160.
Thereafter, the ozone is evacuated from the cavity 136 via the nozzle 128 and the tray 120 is removed from the arched upper or lower teeth 124.
The tray is disposed over teeth and gums with in situ orthodontic bands and ozone introduced for up to 2 minutes.

The structures appear in SMILES notation.

As for `O=[O+][O-]` [ozone], the “examination of teeth for white spots after ozone treatment” value is recorded as “beneficial results”.
